Source: article PMC6542528, “Identification, structure-activity relationship and in silico molecular docking analyses of five novel angiotensin I-converting enzyme (ACE)-inhibitory peptides from stone fish (Actinopyga lecanora) hydrolysates” (PLoS ONE, 2019)
No end group written: not given here.

How the values were obtained:
[1] = molecular target: T1, angiotensin I-converting enzyme (from rabbit lung) (Oryctolagus cuniculus, UniProt P12822); experiment: ACE-inhibitory activity assay (HHL substrate, colorimetric at 410 nm) and IC50 determination; format: biochemical; details: mean ± SD, triplicate; for inhibition at 10000 µM: synthesized peptide at 10 mM; for IC50: synthesized peptide, non-linear regression
T1 construct: angiotensin I-converting enzyme (from rabbit lung); purchased Sigma Aldrich (St. Louis, Mo, USA); host or cells: rabbit lung (tissue-derived)
T1 sequence (P12822 34-1310): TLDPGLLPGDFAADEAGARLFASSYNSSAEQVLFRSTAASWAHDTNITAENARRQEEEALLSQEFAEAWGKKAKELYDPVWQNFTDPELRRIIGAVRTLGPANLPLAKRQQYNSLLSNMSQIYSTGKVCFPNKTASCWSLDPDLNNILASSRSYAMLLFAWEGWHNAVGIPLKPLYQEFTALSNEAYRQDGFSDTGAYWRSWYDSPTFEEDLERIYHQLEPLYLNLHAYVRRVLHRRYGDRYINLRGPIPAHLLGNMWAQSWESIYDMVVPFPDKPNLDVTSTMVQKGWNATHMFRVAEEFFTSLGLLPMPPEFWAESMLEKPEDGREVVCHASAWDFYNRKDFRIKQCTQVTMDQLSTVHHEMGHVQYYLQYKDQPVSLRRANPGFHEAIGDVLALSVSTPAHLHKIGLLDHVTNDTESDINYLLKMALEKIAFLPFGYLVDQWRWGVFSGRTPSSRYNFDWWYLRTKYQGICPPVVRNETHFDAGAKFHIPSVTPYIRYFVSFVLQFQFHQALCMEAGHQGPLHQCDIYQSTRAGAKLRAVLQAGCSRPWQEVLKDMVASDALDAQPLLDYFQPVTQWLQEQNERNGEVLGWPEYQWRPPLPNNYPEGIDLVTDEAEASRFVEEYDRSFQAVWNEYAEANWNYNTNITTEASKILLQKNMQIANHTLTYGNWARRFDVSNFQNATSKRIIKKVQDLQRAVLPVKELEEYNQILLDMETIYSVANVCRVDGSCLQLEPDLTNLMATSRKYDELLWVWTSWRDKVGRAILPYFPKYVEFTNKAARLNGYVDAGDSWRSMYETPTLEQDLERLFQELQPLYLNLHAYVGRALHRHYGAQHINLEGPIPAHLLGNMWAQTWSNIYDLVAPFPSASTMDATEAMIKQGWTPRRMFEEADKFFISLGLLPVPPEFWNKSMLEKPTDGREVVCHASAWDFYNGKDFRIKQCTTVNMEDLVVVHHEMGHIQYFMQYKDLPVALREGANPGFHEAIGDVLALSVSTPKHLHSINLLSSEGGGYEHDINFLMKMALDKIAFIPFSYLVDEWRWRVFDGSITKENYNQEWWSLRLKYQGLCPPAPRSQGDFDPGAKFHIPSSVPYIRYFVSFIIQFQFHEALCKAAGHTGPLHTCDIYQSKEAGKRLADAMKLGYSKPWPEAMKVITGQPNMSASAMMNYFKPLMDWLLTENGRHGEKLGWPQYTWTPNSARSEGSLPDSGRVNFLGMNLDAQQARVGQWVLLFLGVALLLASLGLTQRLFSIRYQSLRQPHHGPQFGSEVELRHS
Description: The peptides were chemically synthesized through solid phase synthesis for peptides ≥ 5 amino acids with a percentage purity of > 90% and supplied by Genscript (New Jersey, USA). The ACE-inhibitory activity was measured according to Jimsheena & Gowda with minor modifications. The Peptides stock solutions were diluted over ranges of concentration for each peptide. A 15 μL of the peptide was pre-incubated with 10 μL of ACE (100 mU/mL) at 37°C for 10 min. Then 50 μL of the 5 mM HHL substrate containing 0.30 M NaCl in 50 mM borate buffer pH 8.30 was added and the incubation was continued for the next 60 min. The reaction was stopped using 1 M HCl. Benzene sulfonyl chloride (BSC) and pyridine were then added at 75 μL and 150 μL, respectively and the amount of hippuric acid produced was quantified by the intensity of the yellow color produced in a microplate reader at 410 nm. The ACE-inhibitory activity of the peptides was then calculated from the average of three values as follows: ACE−inhibition(%)=[(AC−AS)/(AC−AB)]×100 (1)
Where AC means absorbance of control (where ACE and substrate were present), AS means absorbance of sample (where peptide, ACE and substrate were present), while AB means the absorbance of blank (where only substrate was present).

ACE = test system: ACE; parameters: method as in PMID 22224920; details: bromelain-generated peptide from Misgurnus anguillicaudatus tissue protein; cited from earlier work

Substance	inhibition at 10000 µM [1]	IC50 [1]	IC50 (ACE)
KVPPKA [Lys-Val-Pro-Pro-Lys-Ala]	81.4 ± 1.78%	980 ± 4 µM	
EVLIQ [Glu-Val-Leu-Ile-Gln]	62.1 ± 2.15%	1440 ± 17 µM	
ALGPQFY [Ala-Leu-Gly-Pro-Gln-Phe-Tyr]	94.4 ± 2.05%	12 ± 1 µM	
Ala-His-Leu-Leu (AHLL; printed: Ala-His-Leu-Leu)			18.200 ± 0.900 µg/mL
LAPPTM [Leu-Ala-Pro-Pro-Thr-Met]	72.4 ± 1.99%	1310 ± 17 µM	
EHPVL [Glu-His-Pro-Val-Leu]	54.8 ± 2.17%	1680 ± 46 µM	
